Measurements published in patent US12595230B2, “Substituted 6,7-dihydro-5H-benzo[7]annulene compounds and their derivatives, processes for their preparation and therapeutic uses thereof” (Sanofi, priority 2020, dated 2026).

Target: T1, ERα (Homo sapiens, UniProt P03372)
T1 construct: host or cells: MCF7
T1 sequence (P03372 1-595): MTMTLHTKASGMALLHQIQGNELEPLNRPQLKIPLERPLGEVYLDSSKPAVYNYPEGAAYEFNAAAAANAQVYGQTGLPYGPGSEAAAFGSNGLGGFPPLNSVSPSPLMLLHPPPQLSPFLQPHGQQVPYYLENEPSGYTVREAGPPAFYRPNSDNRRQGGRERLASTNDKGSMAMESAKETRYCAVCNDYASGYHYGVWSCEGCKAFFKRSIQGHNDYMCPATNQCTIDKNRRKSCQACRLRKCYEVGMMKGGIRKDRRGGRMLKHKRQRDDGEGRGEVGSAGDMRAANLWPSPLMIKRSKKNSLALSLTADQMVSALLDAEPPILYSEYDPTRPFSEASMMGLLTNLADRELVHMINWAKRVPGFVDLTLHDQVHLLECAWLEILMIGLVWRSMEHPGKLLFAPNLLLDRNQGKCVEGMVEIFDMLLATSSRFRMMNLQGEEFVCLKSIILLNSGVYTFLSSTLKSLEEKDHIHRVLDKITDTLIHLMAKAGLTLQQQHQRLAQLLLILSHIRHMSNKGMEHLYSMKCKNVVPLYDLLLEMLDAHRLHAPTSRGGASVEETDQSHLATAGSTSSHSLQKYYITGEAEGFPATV
Test: Estrogen receptor degradation activity: breast cancer cell ERα in cell western assay (MCF7 cells)
Assay type: cell-based
Conditions: for % Degradation At 0.3 μM: 4 hours, relative to fulvestrant 0.1 μM positive control; for DC50: 4 hours post compound addition, concentration which degrades 50% of the estrogen receptor, read-out: Degradation IC50
In short: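 Compounds were applied to MCF7 cells in stripped-serum, phenol red-free medium for 4 h at final 0.3–0.0000018 μM, with fulvestrant (0.1 μM) as control. Value: IC50 (nM) for 50% ERα degradation.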

SMILES	% Degradation At 0.3 μM	DC50
O=C(O)c1ccc2c(c1)CCCC(C1C[C@H]3CCC[C@H]3C1)=C2c1ccc(CC2CN(CCCF)C2)cc1 (single isomer, unassigned) [Example 336, 9-(4-((1-(3-fluoropropyl)azetidin-3-yl)methyl)phenyl)-8-(octahydropentalen-2-yl)-6,7-dihydro-5H-benzo[7]annulene-3-carboxylic acid]	86%	0.9 nM
Cl.O=C(O)c1ccc2c(c1)CCCC(C1CCCC1)=C2c1ccc(CC2CN(CCCF)C2)cc1 [Example 6, 8-cyclopentyl-9-(4-((1-(3-fluoropropyl)azetidin-3-yl)methyl)phenyl)-6,7-dihydro-5H-benzo[7]annulene-3-carboxylic acid]	82%	0.8 nM
C[C@H]1CC[C@@H](C2=C(c3ccc(CC4CN(CCCF)C4)cc3)c3ccc(C(=O)O)cc3CCC2)CC1 [Example 14, 9-(4-((1-(3-fluoropropyl)azetidin-3-yl)methyl)phenyl)-8-((1s,4s)-4-methylcyclohexyl)-6,7-dihydro-5H-benzo[7]annulene-3-carboxylic acid]	80%	0.8 nM
O=C(O)c1ccc2c(c1)CCCC(c1ccc(Cl)cc1Cl)=C2c1ccc(C(=O)C2CN(CCCF)C2)cc1 [Example 39, 8-(2,4-Dichlorophenyl)-9-(4-(1-(3-fluoropropyl)azetidine-3-carbonyl)phenyl)-6,7-dihydro-5H-benzo[7]annulene-3-carboxylic Acid]	92%	1.2 nM
COC(c1ccc(C2=C(c3ccc(Cl)cc3Cl)CCCc3cc(C(=O)O)ccc32)cc1)C1CN(CCCF)C1 (single isomer, unassigned; isomer 1) [Example 227, 8-(2,4-dichlorophenyl)-9-(4-((1-(3-fluoropropyl)azetidin-3-yl)(methoxy)methyl)phenyl)-6,7-dihydro-5H-benzo[7]annulene-3-carboxylic Acid Isomer 1]	75%	0.6 nM
NC(c1ccc(C2=C(c3ccc(Cl)cc3Cl)CCCc3cc(C(=O)O)ccc32)cc1)C1CN(CCCF)C1 (single isomer, unassigned; isomer 1) [Example 243, 9-(4-(amino(1-(3-fluoropropyl)azetidin-3-yl)methyl)phenyl)-8-(2,4-dichlorophenyl)-6,7-dihydro-5H-benzo[7]annulene-3-carboxylic Acid Isomer 1]	78%	15.6 nM
O=C(O)c1c(F)cc2c(c1F)CCCC(c1ccc(F)cc1Cl)=C2c1ccc(CC2CN(CCCF)C2)cc1 [Example 216, 8-(2-chloro-4-fluorophenyl)-2,4-difluoro-9-(4-((1-(3-fluoropropyl)azetidin-3-yl)methyl)phenyl)-6,7-dihydro-5H-benzo[7]annulene-3-carboxylic acid]	83%	13.2 nM
O=C(O)c1ccc2c(c1)CCCC(c1ccc(Cl)cc1Cl)=C2c1ccc(C(O)C2CN(CCCF)C2)cc1 (single isomer, unassigned) [Example 42, 8-(2,4-dichlorophenyl)-9-(4-((1-(3-fluoropropyl)azetidin-3-yl)(hydroxy)methyl)phenyl)-6,7-dihydro-5H-benzo[7]annulene-3-carboxylic acid]	94%	3.3 nM
CCC(CC)CC1=C(c2ccc(CC3CN(CCCF)C3)cc2)c2ccc(C(=O)O)cc2CCC1 [Example 231, 8-(2-Ethylbutyl)-9-(4-((1-(3-fluoropropyl)azetidin-3-yl)methyl)phenyl)-6,7-dihydro-5H-benzo[7]annulene-3-carboxylic Acid]	83%	0.3 nM
O=C(O)c1ccc2c(c1Cl)CCCC(c1ccc(Cl)cc1Cl)=C2c1ccc(CC2CN(CCCF)C2)cc1 [Example 247, 4-chloro-8-(2,4-dichlorophenyl)-9-(4-((1-(3-fluoropropyl)azetidin-3-yl)methyl)phenyl)-6,7-dihydro-5H-benzo[7]annulene-3-carboxylic acid]	97%	1.8 nM
Oc1c(F)cc2c(c1F)CCCC(c1ccc(Cl)cc1Cl)=C2c1ccc(CC2CN(CCCF)C2)cc1 [Example 305, 8-(2,4-dichlorophenyl)-2,4-difluoro-9-(4-((1-(3-fluoropropyl)azetidin-3-yl)methyl)phenyl)-6,7-dihydro-5H-benzo[7]annulen-3-ol]	85%	1.2 nM
Cc1c(F)ccc(C2=C(c3ccc(CC4CN(CCC(F)F)C4)cc3)c3ccc(C(=O)O)cc3CCC2)c1C [Example 285, 9-(4-((1-(3,3-difluoropropyl)azetidin-3-yl)methyl)phenyl)-8-(4-fluoro-2,3-dimethylphenyl)-6,7-dihydro-5H-benzo[7]annulene-3-carboxylic acid]	89%	0.4 nM
N#Cc1cc2c(cc1C(=O)O)CCCC(c1ccc(Cl)cc1Cl)=C2c1ccc(CC2CN(CCCF)C2)cc1 [Example 245, 2-cyano-8-(2,4-dichlorophenyl)-9-(4-((1-(3-fluoropropyl)azetidin-3-yl)methyl)phenyl)-6,7-dihydro-5H-benzo[7]annulene-3-carboxylic acid]	100%	269 nM
O=C(O)c1ccc2c(c1)CCCC(c1cccc(F)c1F)=C2c1ccc(CC2CN(CCCF)C2)cc1 [Example 22, 8-(2,3-difluorophenyl)-9-(4-((1-(3-fluoropropyl)azetidin-3-yl)methyl)phenyl)-6,7-dihydro-5H-benzo[7]annulene-3-carboxylic acid]	92%	0.3 nM
Cc1cc(C(F)(F)F)ccc1C1=C(c2ccc(CC3CN(CCCF)C3)cc2)c2ccc(C(=O)O)cc2CCC1 [Example 17, 9-(4-((1-(3-fluoropropyl)azetidin-3-yl)methyl)phenyl)-8-(2-methyl-4-(trifluoromethyl)phenyl)-6,7-dihydro-5H-benzo[7]annulene-3-carboxylic acid]	90%	0.3 nM
O=C(O)c1ccc2c(c1)CCCC(c1cccc(C(F)(F)F)c1F)=C2c1ccc(CC2CN(CCC(F)F)C2)cc1 [Example 288, 9-(4-((1-(3,3-difluoropropyl)azetidin-3-yl)methyl)phenyl)-8-(2-fluoro-3-(trifluoromethyl)phenyl)-6,7-dihydro-5H-benzo[7]annulene-3-carboxylic acid]	81%	0.5 nM
O=C(O)c1ccc2c(c1)CCCC([C@@H]1C[C@H]1C1CCC(F)(F)CC1)=C2c1ccc(CC2CN(CCCF)C2)cc1 [Example 331, 8-((1R,2S)-2-(4,4-difluorocyclohexyl)cyclopropyl)-9-(4-((1-(3-fluoropropyl)azetidin-3-yl)methyl)phenyl)-6,7-dihydro-5H-benzo[7]annulene-3-carboxylic acid]	77%	10.7 nM
C[C@H]1CC[C@H](C2=C(c3ccc(CC4CN(CCCF)C4)cc3)c3ccc(C(=O)O)cc3CCC2)CC1 [Example 15, 9-(4-((1-(3-fluoropropyl)azetidin-3-yl)methyl)phenyl)-8-((1r,4r)-4-methylcyclohexyl)-6,7-dihydro-5H-benzo[7]annulene-3-carboxylic acid]	86%	4 nM
